Reference: PubChem BioAssay (NCI)
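Where inhibition never reached the appropriate level, the endpoint shown equals the highest concentration tested. Otherwise, values were interpolated linearly from a five-concentration, 48-hour dose response in 96-well plates. Definition used: TGI = concentration required for complete inhibition of growth.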

Tests used:
Assay in all cases: NCI tumour cell line growth inhibition, 48 h
[1] = tested on: HCC-2998 colon
[2] = tested on: EKVX NSCLC
[3] = tested on: CAKI-1 renal
[4] = tested on: SK-MEL-2 melanoma
[5] = tested on: MDA-MB-231 breast
[6] = tested on: IGROV1 ovarian
[7] = tested on: NCI-H23 lung
[8] = tested on: OVCAR-5 ovarian
[9] = tested on: KM12 colon
[10] = tested on: MALME-3M melanoma
[11] = tested on: LOX IMVI melanoma
[12] = tested on: SF-268 CNS
[13] = tested on: SK-MEL-5 melanoma
[14] = tested on: RXF 393 renal
[15] = tested on: K-562 leukemia
[16] = tested on: A498 renal
[17] = tested on: UO-31 renal
[18] = tested on: OVCAR-4 ovarian
[19] = tested on: MOLT-4 leukemia
[20] = tested on: CCRF-CEM leukemia
[21] = tested on: HOP-92 NSCLC
[22] = tested on: NCI-H226 lung
[23] = tested on: UACC-62 melanoma
[24] = tested on: HOP-62 NSCLC
[25] = tested on: DU-145 prostate
[26] = tested on: NCI/ADR-RES ovarian
[27] = tested on: A549 NSCLC
[28] = tested on: TK-10 renal
[29] = tested on: SK-OV-3 ovarian
[30] = tested on: HCT-15 colon
[31] = tested on: T-47D breast
[32] = tested on: NCI-H460 lung
[33] = tested on: PC-3 prostate
[34] = tested on: MDA-MB-435
[35] = tested on: SN12C renal
[36] = tested on: M14 melanoma
[37] = tested on: SF-539 CNS
[38] = tested on: OVCAR-3 ovarian
[39] = tested on: HT29 colon
[40] = tested on: NCI-H522 lung
[41] = tested on: MCF7 breast
[42] = tested on: ACHN renal
[43] = tested on: U251 CNS
[44] = tested on: MDA-N
[45] = tested on: 786-0 renal
[46] = tested on: SNB-19 CNS
[47] = tested on: SF-295 CNS
[48] = tested on: HCT-116 colon
[49] = tested on: SNB-75 CNS
[50] = tested on: COLO 205 colon
[51] = tested on: SK-MEL-28 melanoma
[52] = tested on: SW-620 colon
[53] = tested on: OVCAR-8 ovarian
[54] = tested on: UACC-257 melanoma
[55] = tested on: SR leukemia
[56] = tested on: HL-60(TB) leukemia
[57] = tested on: RPMI-8226 leukemia
[58] = tested on: BT-549 breast

C=C(C)/C=C/C(O)[C@](C)(O)[C@H]1[C@H](O)C[C@@]2(C)[C@@H]3CCc4c(cc(OC5OC(CO)C(O)C(O)C5O)c(O)c4C)C3(C)C(=O)C[C@]12C (stereo partly drawn)
TGI [1]: > 100 µM | TGI [2]: > 100 µM | TGI [3]: > 100 µM | TGI [4]: > 100 µM | TGI [5]: > 100 µM | TGI [6]: > 100 µM | TGI [7]: > 100 µM | TGI [8]: > 100 µM | TGI [9]: > 100 µM | TGI [10]: > 100 µM | TGI [11]: > 100 µM | TGI [12]: > 100 µM | TGI [13]: > 100 µM | TGI [14]: > 100 µM | TGI [15]: > 100 µM | TGI [16]: > 100 µM | TGI [17]: > 100 µM | TGI [18]: > 100 µM | TGI [19]: > 100 µM | TGI [20]: > 100 µM | TGI [21]: > 100 µM | TGI [22]: > 100 µM | TGI [23]: > 100 µM | TGI [24]: > 100 µM | TGI [25]: > 100 µM | TGI [26]: > 100 µM | TGI [27]: > 100 µM | TGI [28]: > 100 µM | TGI [29]: > 100 µM | TGI [30]: > 100 µM | TGI [31]: > 100 µM | TGI [32]: > 100 µM | TGI [33]: > 100 µM | TGI [34]: > 100 µM | TGI [35]: > 100 µM | TGI [36]: > 100 µM | TGI [37]: > 100 µM | TGI [38]: > 100 µM | TGI [39]: > 100 µM | TGI [40]: > 100 µM | TGI [41]: > 100 µM | TGI [42]: > 100 µM | TGI [43]: > 100 µM | TGI [44]: > 100 µM | TGI [45]: > 100 µM | TGI [46]: > 100 µM | TGI [47]: > 100 µM | TGI [48]: > 100 µM | TGI [49]: > 100 µM | TGI [50]: > 100 µM | TGI [51]: > 100 µM | TGI [52]: > 100 µM | TGI [53]: > 100 µM | TGI [54]: > 100 µM | TGI [55]: > 100 µM

COc1cccc2c1C(=O)c1c(O)c3c(c(O)c1C2=O)CC(O)(C(O)CO)CC3OC1CC2C(OC3COCC(C#N)N32)C(C)O1 (stereo not drawn)
TGI [1]: < 0.01 µM | TGI [2]: 0.0644 µM | TGI [5]: 0.0139 µM | TGI [6]: < 0.01 µM | TGI [7]: < 0.01 µM | TGI [8]: 4.31 µM | TGI [10]: < 0.01 µM | TGI [56]: < 0.01 µM | TGI [11]: 0.0125 µM | TGI [12]: 0.0324 µM | TGI [13]: < 0.01 µM | TGI [14]: < 0.01 µM | TGI [15]: < 0.01 µM | TGI [16]: < 0.01 µM | TGI [18]: < 0.01 µM | TGI [19]: < 0.01 µM | TGI [20]: < 0.01 µM | TGI [21]: < 0.01 µM | TGI [22]: < 0.01 µM | TGI [23]: < 0.01 µM | TGI [24]: 0.0432 µM | TGI [25]: 0.406 µM | TGI [26]: < 0.01 µM | TGI [27]: > 100 µM | TGI [28]: < 0.01 µM | TGI [29]: 0.0727 µM | TGI [30]: 1.04 µM | TGI [31]: < 0.01 µM | TGI [33]: 0.0194 µM | TGI [34]: < 0.01 µM | TGI [35]: 1.47 µM | TGI [36]: < 0.01 µM | TGI [41]: 2.15 µM | TGI [42]: 0.213 µM | TGI [43]: 0.13 µM | TGI [44]: < 0.01 µM | TGI [45]: 0.0282 µM | TGI [46]: 0.0144 µM | TGI [47]: > 100 µM | TGI [50]: < 0.01 µM | TGI [51]: < 0.01 µM | TGI [52]: 13.5 µM | TGI [53]: 1.71 µM | TGI [54]: < 0.01 µM | TGI [55]: > 100 µM

Cc1cc(S(=O)(=O)Nc2nc(N)nc(N(C)C)n2)c(S)cc1Cl
TGI [1]: > 10 µM | TGI [2]: > 10 µM | TGI [57]: > 10 µM | TGI [3]: > 10 µM | TGI [4]: > 10 µM | TGI [6]: > 10 µM | TGI [7]: > 10 µM | TGI [8]: > 10 µM | TGI [9]: > 10 µM | TGI [10]: > 10 µM | TGI [56]: > 10 µM | TGI [58]: > 10 µM | TGI [11]: > 10 µM | TGI [12]: > 10 µM | TGI [13]: > 10 µM | TGI [14]: > 10 µM | TGI [15]: > 10 µM | TGI [16]: > 10 µM | TGI [17]: > 10 µM | TGI [18]: > 10 µM | TGI [19]: > 10 µM | TGI [20]: > 10 µM | TGI [21]: > 10 µM | TGI [22]: > 10 µM | TGI [24]: > 10 µM | TGI [25]: > 10 µM | TGI [26]: > 10 µM | TGI [27]: > 10 µM | TGI [28]: > 10 µM | TGI [29]: > 10 µM | TGI [30]: > 10 µM | TGI [31]: > 10 µM | TGI [32]: > 10 µM | TGI [33]: > 10 µM | TGI [35]: > 10 µM | TGI [36]: > 10 µM | TGI [37]: > 10 µM | TGI [38]: > 10 µM | TGI [39]: > 10 µM | TGI [40]: > 10 µM | TGI [41]: > 10 µM | TGI [42]: > 10 µM | TGI [43]: > 10 µM | TGI [44]: > 10 µM | TGI [45]: > 10 µM | TGI [46]: > 10 µM | TGI [47]: > 10 µM | TGI [48]: > 10 µM | TGI [49]: > 10 µM | TGI [50]: > 10 µM | TGI [51]: > 10 µM | TGI [52]: > 10 µM | TGI [53]: > 10 µM | TGI [54]: > 10 µM | TGI [55]: > 10 µM

COc1nc(-c2cn(S(=O)(=O)c3ccc(C)cc3)c3ccc(Br)cc23)cc(C(F)(F)F)c1C#N
TGI [1]: > 100 µM | TGI [2]: > 100 µM | TGI [57]: 41.8 µM | TGI [3]: > 100 µM | TGI [4]: > 100 µM | TGI [6]: > 100 µM | TGI [7]: 44.9 µM | TGI [8]: > 100 µM | TGI [9]: > 100 µM | TGI [10]: > 100 µM | TGI [56]: > 100 µM | TGI [58]: 74.2 µM | TGI [11]: > 100 µM | TGI [12]: > 100 µM | TGI [13]: > 100 µM | TGI [14]: 58.8 µM | TGI [15]: > 100 µM | TGI [16]: > 100 µM | TGI [17]: > 100 µM | TGI [18]: > 100 µM | TGI [19]: > 100 µM | TGI [20]: > 100 µM | TGI [21]: > 100 µM | TGI [22]: 53.9 µM | TGI [23]: > 100 µM | TGI [25]: 31.3 µM | TGI [26]: > 100 µM | TGI [27]: > 100 µM | TGI [29]: 59.5 µM | TGI [30]: > 100 µM | TGI [31]: 42.9 µM | TGI [32]: > 100 µM | TGI [33]: > 100 µM | TGI [34]: > 100 µM | TGI [35]: > 100 µM | TGI [37]: > 100 µM | TGI [38]: 35.8 µM | TGI [39]: > 100 µM | TGI [40]: > 100 µM | TGI [41]: > 100 µM | TGI [42]: > 100 µM | TGI [43]: 35.2 µM | TGI [44]: > 100 µM | TGI [46]: 62.4 µM | TGI [47]: > 100 µM | TGI [49]: 49.4 µM | TGI [50]: > 100 µM | TGI [51]: > 100 µM | TGI [52]: > 100 µM | TGI [53]: 64.9 µM | TGI [54]: > 100 µM

O=C(O)c1ccccc1SCc1cccc2c(=O)c3ccc(Cl)cc3oc12
TGI [1]: > 50 µM | TGI [2]: > 50 µM | TGI [57]: > 50 µM | TGI [3]: > 50 µM | TGI [4]: > 50 µM | TGI [5]: > 50 µM | TGI [6]: > 50 µM | TGI [7]: > 50 µM | TGI [8]: > 50 µM | TGI [9]: > 50 µM | TGI [10]: 44.9 µM | TGI [56]: 27.7 µM | TGI [58]: > 50 µM | TGI [11]: > 50 µM | TGI [13]: > 50 µM | TGI [15]: > 50 µM | TGI [16]: > 50 µM | TGI [17]: > 50 µM | TGI [18]: > 50 µM | TGI [19]: > 50 µM | TGI [20]: > 50 µM | TGI [22]: > 50 µM | TGI [23]: > 50 µM | TGI [24]: 47.3 µM | TGI [26]: > 50 µM | TGI [27]: > 50 µM | TGI [28]: > 50 µM | TGI [29]: > 50 µM | TGI [30]: > 50 µM | TGI [31]: > 50 µM | TGI [33]: > 50 µM | TGI [34]: > 50 µM | TGI [35]: > 50 µM | TGI [36]: > 50 µM | TGI [37]: > 50 µM | TGI [38]: > 50 µM | TGI [39]: > 50 µM | TGI [40]: > 50 µM | TGI [41]: > 50 µM | TGI [42]: > 50 µM | TGI [43]: > 50 µM | TGI [44]: > 50 µM | TGI [45]: > 50 µM | TGI [47]: > 50 µM | TGI [48]: > 50 µM | TGI [49]: > 50 µM | TGI [50]: > 50 µM | TGI [51]: > 50 µM | TGI [52]: > 50 µM | TGI [53]: > 50 µM | TGI [54]: > 50 µM | TGI [55]: > 50 µM
